Laboratory results as given in the CheMixHub viscosity set.
“And” between values parts separate entries of the source, which are not always exact repeats. Equal entries are not always repeated. ± gives the uncertainty stated by the source.

Experiment: xn = mol fraction of the nth substance listed

CC(C)(N)CO + O
viscosity
Settings | 303.15 K | 308.15 K | 313.15 K | 318.15 K | 323.15 K
100 kPa, x1 = 0.01 | – | – | 0.77 ± 0.05 mPa·s | – | –
100 kPa, x1 = 0.022 | – | – | 0.93 ± 0.06 mPa·s | – | –
100 kPa, x1 = 0.048 | – | – | 1.36 ± 0.08 mPa·s | – | –
100 kPa, x1 = 0.12 | – | – | 3.15 ± 0.19 mPa·s | – | –
101 kPa, x1 = 0.0105 | 0.88 ± 0.14 mPa·s | 0.79 ± 0.13 mPa·s | 0.72 ± 0.12 mPa·s | 0.65 ± 0.1 mPa·s | 0.52 ± 0.08 mPa·s
101 kPa, x1 = 0.0539 | 1.8 ± 0.29 mPa·s | 1.59 ± 0.25 mPa·s | 1.39 ± 0.22 mPa·s | 1.23 ± 0.2 mPa·s | 1 ± 0.16 mPa·s
101 kPa, x1 = 0.0728 | 2.48 ± 0.4 mPa·s | 2.1 ± 0.34 mPa·s | 1.8 ± 0.29 mPa·s | 1.56 ± 0.25 mPa·s | 1.29 ± 0.21 mPa·s
101 kPa, x1 = 0.1 | 3.54 ± 0.57 mPa·s | 2.74 ± 0.44 mPa·s | 2.29 ± 0.37 mPa·s | 1.96 ± 0.31 mPa·s | 1.7 ± 0.27 mPa·s and 1.95 ± 0.08 mPa·s
101 kPa, x1 = 0.1571 | 6.33 ± 1 mPa·s | 4.28 ± 0.69 mPa·s | 3.11 ± 0.5 mPa·s | 2.86 ± 0.46 mPa·s | 2.58 ± 0.41 mPa·s
101 kPa, x1 = 0.2 | 11.06 ± 0.45 mPa·s | – | 6.65 ± 0.27 mPa·s | – | 4.14 ± 0.17 mPa·s
101 kPa, x1 = 0.2559 | 13.3 ± 2.1 mPa·s | 7.93 ± 1.3 mPa·s | 5.49 ± 0.88 mPa·s | 5.09 ± 0.82 mPa·s | 4.51 ± 0.72 mPa·s
101 kPa, x1 = 0.3 | 20.33 ± 0.82 mPa·s | – | 11.74 ± 0.48 mPa·s | – | 7.18 ± 0.29 mPa·s
101 kPa, x1 = 0.3532 | 23.78 ± 3.8 mPa·s | 16.16 ± 2.6 mPa·s | 12.24 ± 2 mPa·s | 9.26 ± 1.5 mPa·s | 7.5 ± 1.2 mPa·s
101 kPa, x1 = 0.4 | 32.25 ± 1.3 mPa·s | – | 18.35 ± 0.75 mPa·s | – | 11.9 ± 0.48 mPa·s
101 kPa, x1 = 0.4546 | 41.28 ± 6.6 mPa·s | 27.92 ± 4.5 mPa·s | 20.29 ± 3.3 mPa·s | 15.33 ± 2.5 mPa·s | 10.88 ± 1.8 mPa·s
101 kPa, x1 = 0.5 | 53.64 ± 2.2 mPa·s | – | 25.49 ± 1.1 mPa·s | – | 15.29 ± 0.62 mPa·s
101 kPa, x1 = 0.5537 | 56.6 ± 9.1 mPa·s | 38.93 ± 6.3 mPa·s | 28.36 ± 4.6 mPa·s | 20.9 ± 3.4 mPa·s | 14.59 ± 2.4 mPa·s
101 kPa, x1 = 0.6 | 60.63 ± 2.5 mPa·s | – | 33.17 ± 1.4 mPa·s | – | 16.56 ± 0.68 mPa·s
101 kPa, x1 = 0.658 | 71.44 ± 12 mPa·s | 49.28 ± 8 mPa·s | 35.14 ± 5.7 mPa·s | 25.89 ± 4.2 mPa·s | 18.35 ± 3 mPa·s
101 kPa, x1 = 0.7 | 82.98 ± 3.4 mPa·s | – | 43.03 ± 1.8 mPa·s | – | 20.8 ± 0.85 mPa·s
101 kPa, x1 = 0.7001 | 76.44 ± 12 mPa·s | 53.22 ± 8.6 mPa·s | 37.3 ± 6 mPa·s | 27.62 ± 4.5 mPa·s | 19.8 ± 3.2 mPa·s
101 kPa, x1 = 0.8 | 91.29 ± 3.8 mPa·s | – | 46.27 ± 1.9 mPa·s | – | 22.2 ± 0.91 mPa·s
101 kPa, x1 = 0.8108 | 85.3 ± 14 mPa·s | 57.86 ± 9.4 mPa·s | 41.82 ± 6.8 mPa·s | 31.42 ± 5.1 mPa·s | 22.59 ± 3.7 mPa·s
101 kPa, x1 = 0.9 | 96.39 ± 4 mPa·s | – | 47.42 ± 1.9 mPa·s | – | 23.4 ± 0.96 mPa·s
101 kPa, x1 = 0.9082 | 88.75 ± 14 mPa·s | 60 ± 9.7 mPa·s | 43 ± 7 mPa·s | 32.18 ± 5.2 mPa·s | 22.98 ± 3.7 mPa·s
101.33 kPa, x1 = 0.048 | 1.866 ± 0.045 mPa·s | – | 1.405 ± 0.035 mPa·s | – | 1.099 ± 0.028 mPa·s
101.33 kPa, x1 = 0.08 | 3.053 ± 0.072 mPa·s | – | 2.168 ± 0.052 mPa·s | – | 1.621 ± 0.04 mPa·s

CCCCN(CCCC)CCCC + CO
viscosity [mPa·s], 101.33 kPa
Settings | 298.15 K | 303.15 K | 308.15 K | 313.15 K | 318.15 K | 323.15 K
x1 = 0.1015 | – | 0.881 ± 0.053 | – | 0.778 ± 0.047 | – | 0.675 ± 0.041
x1 = 0.1093 | 1.013 ± 0.061 | – | 0.889 ± 0.054 | – | 0.735 ± 0.044 | –
x1 = 0.1551 | – | 1.008 ± 0.061 | – | 0.896 ± 0.054 | – | 0.787 ± 0.048
x1 = 0.2027 | 1.21 ± 0.073 | – | 1.07 ± 0.065 | – | 0.919 ± 0.056 | –
x1 = 0.2166 | – | 1.106 ± 0.067 | – | 0.994 ± 0.06 | – | 0.895 ± 0.054
x1 = 0.256 | 1.278 ± 0.077 | – | 1.132 ± 0.068 | – | 0.992 ± 0.06 | –
x1 = 0.2933 | – | 1.177 ± 0.071 | – | 1.068 ± 0.065 | – | 0.984 ± 0.059
x1 = 0.3035 | 1.319 ± 0.08 | – | 1.169 ± 0.071 | – | 1.036 ± 0.063 | –
x1 = 0.3493 | – | 1.208 ± 0.073 | – | 1.101 ± 0.067 | – | 1.027 ± 0.062
x1 = 0.362 | 1.353 ± 0.082 | – | 1.197 ± 0.072 | – | 1.066 ± 0.064 | –
x1 = 0.404 | 1.369 ± 0.083 | – | 1.208 ± 0.073 | – | 1.073 ± 0.065 | –
x1 = 0.4195 | – | 1.228 ± 0.074 | – | 1.12 ± 0.068 | – | 1.044 ± 0.063
x1 = 0.4528 | 1.383 ± 0.084 | – | 1.215 ± 0.073 | – | 1.07 ± 0.065 | –
x1 = 0.4998 | – | 1.235 ± 0.075 | – | 1.118 ± 0.068 | – | 1.03 ± 0.062
x1 = 0.5101 | 1.394 ± 0.084 | – | 1.216 ± 0.073 | – | 1.054 ± 0.064 | –
x1 = 0.5426 | – | 1.235 ± 0.075 | – | 1.108 ± 0.067 | – | 1.011 ± 0.061
x1 = 0.5541 | 1.4 ± 0.085 | – | 1.213 ± 0.073 | – | 1.036 ± 0.063 | –
x1 = 0.604 | 1.404 ± 0.085 | – | 1.208 ± 0.073 | – | 1.014 ± 0.061 | –
x1 = 0.6175 | – | 1.232 ± 0.074 | – | 1.093 ± 0.066 | – | 0.974 ± 0.059
x1 = 0.6459 | – | 1.233 ± 0.075 | – | 1.085 ± 0.066 | – | 0.961 ± 0.058
x1 = 0.6609 | 1.408 ± 0.085 | – | 1.2 ± 0.073 | – | 0.989 ± 0.06 | –
x1 = 0.6925 | 1.409 ± 0.085 | – | 1.194 ± 0.072 | – | 0.977 ± 0.059 | –
x1 = 0.7057 | – | 1.224 ± 0.074 | – | 1.069 ± 0.065 | – | 0.932 ± 0.056
x1 = 0.7264 | 1.409 ± 0.085 | – | 1.188 ± 0.072 | – | 0.966 ± 0.058 | –
x1 = 0.763 | – | 1.217 ± 0.074 | – | 1.052 ± 0.064 | – | 0.911 ± 0.055
x1 = 0.8027 | 1.405 ± 0.085 | – | 1.172 ± 0.071 | – | 0.95 ± 0.057 | –
x1 = 0.8237 | – | 1.205 ± 0.073 | – | 1.039 ± 0.063 | – | 0.897 ± 0.054
x1 = 0.8877 | – | 1.19 ± 0.072 | – | 1.022 ± 0.062 | – | 0.885 ± 0.053
x1 = 0.8925 | 1.395 ± 0.084 | – | 1.151 ± 0.07 | – | 0.941 ± 0.057 | –
x1 = 0.9438 | – | 1.178 ± 0.071 | – | 1.011 ± 0.061 | – | 0.873 ± 0.053
